We go through 2 compounds from patent US20080305169A1, “Pharmaceutical Compositions Comprising Nitrogen-Containing Fused Ring Coumpounds” (Japan Tobacco Inc., priority 2006, published 2008).

The conditions of data set [1]: Guideline for the management of hyperuricemia and gout (1st Edit.); cited from earlier work.
Data set [2] can be described thus: Evaluation of stability on excipient compatibility, compound C (Experimental Example 11). The data set is classed as physicochemical. The settings on record: 60° C., 75% RH, 2 weeks. From the text:
Evaluation of Stability on Excipient Compatibility
Compound C was physically mixed in various additives shown in Table 48 in a mortar (see Table 48 for mixing ratio), and the obtained mixed powder was placed in a glass sample bottle in a layer thickness of about 5 mm.
The glass sample bottle was placed in a desiccator humidity-conditioned to 75% RH (relative humidity) without capping, and the desiccator containing the bottle was preserved for 2 weeks in a constant-temperature equipment set to 60° C.
After the completion of the preservation, a 60 v/v % aqueous acetonitrile solution was added to a concentration of compound C of 0.5 mg/mL, and the mixture was subjected to a dissolution treatment by ultrasonication and a filtration treatment. Each sample was measured by high performance liquid chromatography, and the stability was evaluated based on the changes from the start of preservation.

In the case of `O=c1[nH]c(=O)c2[nH]c(=O)[nH]c2[nH]1` [uric acid], in data set [1], the “dissolution concentration of uric acid in plasma” value is listed as 7 mg/dL.

As for `O=C(c1cc(Cl)c(O)c(Cl)c1)N1CCOc2ccccc21` [Reference Example 3, (3,5-dichloro-4-hydroxyphenyl)-(2,3-dihydrobenzo[1,4]oxazin-4-yl)-methanone], in data set [2] (compounded with an additive other than calcium silicate), the “stability when compounded with an additive” value is on record as “good stability”. Besides, the “HPLC peak of decomposition product” value in data set [2] (when calcium silicate is added) was “novel peak considered to derive from the decomposition product of compound C”.
